# Measured values taken from patent publication US8686150B2 (Sanofi, priority 2011, dated 2014).
# Target: T1, human full-length recombinant PKC βII (Homo sapiens, UniProt P05771)
# T1 construct: Active human full-length recombinant PKC βII; purchased Invitrogen GmbH, Darmstadt, Germany
# Test: Determination of PKC βII inhibition (Caliper mobility-shift kinase assay, Fluorescein-RFARKGSLRQKNV peptide substrate)
# Assay type: biochemical
# Settings: example compounds at a final concentration of 1.14 μM (±0.15 μM)
# Method: Determination of PKC βII Inhibition
# PKC βII Inhibition was Determined According to the Following Protocol:
# Active human full-length recombinant PKC βII and the peptide substrate, Fluorescein-RFARKGSLRQKNV, were purchased from Invitrogen GmbH, Darmstadt, Germany. Adenosine-5′-triphosphate (ATP), bovine serum albumine (BSA), dimethylsulphoxide (DMSO), 4-(2-hydroxyethyl)piperazine-1-ethanesulfonic acid (Hepes), Triton X-100, 1,2-Dioleoyl-sn-glycerol (DAG), L-G-Phosphatidyl-L-serine (PS), calcium chloride (CaCl2), and Pluronic F-68 were purchased from Sigma-Aldrich, Munich, Germany. Magnesium chloride, 1 M sodium hydroxide solution, 1M hydrochloric acid solution and EDTA were obtained from Merck Biosciences, Darmstadt, Germany.
# Test compounds were diluted to three times the test concentration in buffer 1 (30 mM Hepes-NaOH, pH 7.4, 0.01% Pluronic F-68 and 3% (v/v) DMSO). The PKC enzyme was diluted to a concentration of 30 ng/ml in buffer 2 (30 mM Hepes-NaOH, pH 7.4, 15 mM MgCl2, 150 μM CaCl2, 150 μg/ml PS, 60 μg/ml DAG, and 0.045% (w/v) Triton X-100). The peptide substrate and ATP were diluted to concentrations of 3 μM and 120 μM, respectively, in buffer 2. Two μl of the compound solution were mixed with 2 μl of the diluted enzyme in a 384-well small volume microtiter plate (Greiner, Bio-One, Frickenhausen, Germany), and the kinase reaction was initiated by addition of 2 μl of the solution containing peptide substrate and ATP. After 60 min incubation at 32° C., the reaction was stopped by addition of 20 μl of a solution containing 130 mM Hepes-NaOH, pH 7.4. 0.0195% (v/v) Brij-35, 6.5 mM EDTA. 0.13% chip coating reagent 3 (Caliper Lifescience Inc, Hopkinton, Mass.) and 6.5% (v/v) DMSO. Phosphorylation of the substrate peptide was then detected on a Caliper 3000 instrument essentially as described by Pommereau et al (J. Biomol. Screening 2004, 9(5), 409-416). Separation conditions were as follows: Pressure −0.8 psi, upstream voltage −3000 V, downstream voltage −800 V. Positive controls (buffer 1 instead of compound) and negative controls (buffer 1 instead of compound and buffer 2 instead of kinase solution) were run in parallel on each plate. Fractional turnover (R) was determined as the height of the peak of the phosphorylated peptide product divided by the sum of the unphosphorylated substrate and phosphorylated product peak heights. Percent-inhibition values for the test compounds were determined using the formula % Inhibition=100*(1−(Rcompound−Rnegative control)/(Rpositive control−Rnegative control).
# In the following table % inhibition values observed with example compounds at a final concentration of 1.14 μM (±0.15 μM) are listed: […]
# T1 sequence (P05771 1-673 isoform P05771-2): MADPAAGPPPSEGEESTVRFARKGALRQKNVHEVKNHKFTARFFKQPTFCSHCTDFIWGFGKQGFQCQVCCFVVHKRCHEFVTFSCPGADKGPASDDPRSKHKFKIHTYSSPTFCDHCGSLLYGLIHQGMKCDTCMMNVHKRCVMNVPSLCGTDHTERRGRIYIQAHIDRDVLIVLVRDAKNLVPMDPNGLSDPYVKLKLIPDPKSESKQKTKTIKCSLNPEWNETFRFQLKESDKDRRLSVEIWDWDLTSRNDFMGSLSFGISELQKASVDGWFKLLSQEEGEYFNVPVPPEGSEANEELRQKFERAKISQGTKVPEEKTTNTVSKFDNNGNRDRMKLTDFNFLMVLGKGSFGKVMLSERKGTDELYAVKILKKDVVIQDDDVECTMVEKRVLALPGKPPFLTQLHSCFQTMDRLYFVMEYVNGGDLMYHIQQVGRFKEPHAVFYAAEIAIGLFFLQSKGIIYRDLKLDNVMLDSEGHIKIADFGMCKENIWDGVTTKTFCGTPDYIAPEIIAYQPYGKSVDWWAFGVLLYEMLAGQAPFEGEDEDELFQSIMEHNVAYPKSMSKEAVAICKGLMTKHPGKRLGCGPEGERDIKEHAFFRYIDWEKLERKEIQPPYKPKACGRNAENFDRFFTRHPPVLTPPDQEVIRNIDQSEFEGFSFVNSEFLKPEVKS
inhibition at 1.14 µM [%],% Inhibition [%],SMILES
99,–,"CO[C@H]1CNC[C@@H]1NC(=O)c1cc(-c2ccc(O)cc2)nc2[nH]nc(C)c12 (racemic) [Example 78, 6-(4-Hydroxy-phenyl)-3-methyl-1H-pyrazolo[3,4-b]pyridine-4-carboxylic acid ((trans)-4-methoxy-pyrrolidin-3-yl)-amide]"
75,–,"Cc1n[nH]c2nc(-c3ccc(O)cc3)cc(C(=O)NC3CCCC[C@@H]3N)c12 (mixture of isomers) [Example 123, 6-(4-Hydroxy-phenyl)-3-methyl-1H-pyrazolo[3,4-b]pyridine-4-carboxylic acid (trans-2-amino-cyclohexyl)-amide]"
79,–,"CN[C@H]1CN(C(=O)c2cc(-c3ccc(O)cc3)nc3[nH]nc(C)c23)CC[C@H]1C (racemic) [Example 229, [6-(4-Hydroxy-phenyl)-3-methyl-1H-pyrazolo[3,4-b]pyridin-4-yl]-(cis-4-methyl-3-methylamino-piperidin-1-yl)-methanone]"
53,–,"Cc1n[nH]c2nc(-c3ccc(O)cc3)cc(C(=O)N[C@H]3C[C@@H]3N)c12 (racemic) [Example 251, 6-(4-Hydroxy-phenyl)-3-methyl-1H-pyrazolo[3,4-b]pyridine-4-carboxylic acid (trans-2-amino-cyclopropyl)-amide]"
59,–,"Cc1n[nH]c2nc(-c3ccc(O)c(F)c3)cc(C(=O)N[C@H]3C[C@@H]3N)c12 (racemic) [Example 307, 6-(3-Fluoro-4-hydroxy-phenyl)-3-methyl-1H-pyrazolo[3,4-b]pyridine-4-carboxylic acid (trans-2-amino-cyclopropyl)-amide]"
54,–,"CN[C@H]1CN(C(=O)c2cc(-c3ccc(O)c(F)c3)nc3[nH]nc(C)c23)CC[C@H]1C (racemic) [Example 312, [6-(3-Fluoro-4-hydroxy-phenyl)-3-methyl-1H-pyrazolo[3,4-b]pyridin-4-yl]-(cis-4-methyl-3-methylamino-piperidin-1-yl)-methanone]"
97,–,"Cc1n[nH]c2nc(-c3ccc(O)cc3F)cc(C(=O)N3CCN[C@@H](C)[C@H]3C)c12 (racemic) [Example 442, ((cis)-2,3-Dimethyl-piperazin-1-yl)-[6-(2-fluoro-4-hydroxy-phenyl)-3-methyl-1H-pyrazolo[3,4-b]pyridin-4-yl]-methanone]"
95,–,"Cc1n[nH]c2nc(-c3ccc(O)cc3)cc(C(=O)N3C[C@H](C)NC[C@H]3C)c12 (relative stereo) [Example 73, (trans-2,5-Dimethyl-piperazin-1-yl)-[6-(4-hydroxy-phenyl)-3-methyl-1H-pyrazolo[3,4-b]pyridin-4-yl]-methanone]"
91,–,"Cc1ccc([C@@H]2CNC[C@H]2NC(=O)c2cc(-c3ccc(O)cc3)nc3[nH]nc(C)c23)cc1 (relative stereo) [Example 119, 6-(4-Hydroxy-phenyl)-3-methyl-1H-pyrazolo[3,4-b]pyridine-4-carboxylic acid (trans-4-p-tolyl-pyrrolidin-3-yl)-amide]"
48,–,"Cc1n[nH]c2nc(-c3ccc(O)cc3)cc(C(=O)N[C@@H]3CCCC[C@@H]3N)c12 (relative stereo) [Example 126, 6-(4-Hydroxy-phenyl)-3-methyl-1H-pyrazolo[3,4-b]pyridine-4-carboxylic acid (cis-2-amino-cyclohexyl)-amide]"
83,–,"Cc1n[nH]c2nc(-c3ccc(O)cc3F)cc(C(=O)N3C[C@@H](c4ccccc4)NC[C@@H]3C)c12 (relative stereo) [Example 447, [6-(2-Fluoro-4-hydroxy-phenyl)-3-methyl-1H-pyrazolo[3,4-b]pyridin-4-yl]-(trans-2-methyl-5-phenyl-piperazin-1-yl)-methanone]"
–,88,"Cc1n[nH]c2nc(-c3ccc(O)cc3)cc(C(=O)N3CCNC(c4ccccc4)C3)c12 (single isomer, unassigned) [Example 456, [6-(4-Hydroxy-phenyl)-3-methyl-1H-pyrazolo[3,4-b]pyridin-4-yl]-(3-phenyl-piperazin-1-yl)-methanone]"
–,63,"Cc1n[nH]c2nc(-c3ccc(O)cc3)cc(C(=O)N3CCNC(c4ccccc4)C3)c12 (single isomer, unassigned) [Example 457, [6-(4-Hydroxy-phenyl)-3-methyl-1H-pyrazolo[3,4-b]pyridin-4-yl]-(3-phenyl-piperazin-1-yl)-methanone]"
–,61,"Cc1n[nH]c2nc(-c3ccc(O)cc3F)cc(C(=O)N3C[C@@H](c4ccccc4)NC[C@@H]3C)c12 (single isomer, unassigned) [Example 460, [6-(2-Fluoro-4-hydroxy-phenyl)-3-methyl-1H-pyrazolo[3,4-b]pyridin-4-yl]-(trans-2-methyl-5-phenyl-piperazin-1-yl)-methanone]"
–,99,"Cc1n[nH]c2nc(-c3ccc(O)cc3F)cc(C(=O)N3C[C@@H](c4ccccc4)NC[C@@H]3C)c12 (single isomer, unassigned) [Example 461, [6-(2-Fluoro-4-hydroxy-phenyl)-3-methyl-1H-pyrazolo[3,4-b]pyridin-4-yl]-(trans-2-methyl-5-phenyl-piperazin-1-yl)-methanone]"
92,–,"Cc1n[nH]c2nc(-c3ccc(O)cc3)cc(C(=O)NC34CNCC3C4)c12 (stereo in doubt) [Example 205, 6-(4-Hydroxy-phenyl)-3-methyl-1H-pyrazolo[3,4-b]pyridine-4-carboxylic acid [(R)-3-azabicyclo[3.1.0]hexan-1-yl]-amide]"
74,–,"Cc1n[nH]c2nc(-c3ccc(O)c(F)c3)cc(C(=O)N[C@@H]3[C@H]4CC[C@H](C4)[C@H]3CN)c12 (stereo in doubt) [Example 311, 6-(3-Fluoro-4-hydroxy-phenyl)-3-methyl-1H-pyrazolo[3,4-b]pyridine-4-carboxylic acid (3-aminomethyl-bicyclo[2.2.1]hept-2-yl)-amide]"
98,–,"Cc1n[nH]c2nc(-c3ccc(O)cc3)cc(C(=O)N3CCNCC3(C)c3ccccc3)c12 (stereo not shown) [Example 1, [6-(4-Hydroxy-phenyl)-3-methyl-1H-pyrazolo[3,4-b]pyridin-4-yl]-(2-methyl-2-phenyl-piperazin-1-yl)-methanone]"
69,–,"CCc1n[nH]c2nc(-c3ccc(O)c(F)c3)cc(C(=O)N3CCNCC3)c12 [Example 2, [3-Ethyl-6-(3-fluoro-4-hydroxy-phenyl)-1H-pyrazolo[3,4-b]pyridin-4-yl]-piperazin-1-yl-methanone]"
82,–,"CCc1n[nH]c2nc(-c3ccc(O)cc3)cc(C(=O)N3CCNCC3)c12 [Example 3, [3-Ethyl-6-(4-hydroxy-phenyl)-1H-pyrazolo[3,4-b]pyridin-4-yl]-piperazin-1-yl-methanone]"

SMILES,inhibition at 1.14 µM [%],% Inhibition [%]
"Cc1n[nH]c2nc(-c3ccc(O)c(F)c3)cc(C(=O)NC3CN4CCC3CC4)c12 (stereo in doubt) [Example 317, (S)-6-(3-Fluoro-4-hydroxy-phenyl)-3-methyl-1H-pyrazolo[3,4-b]pyridine-4-carboxylic acid (1-aza-bicyclo[2.2.2]oct-3-yl)-amide]",68,–
"Cc1n[nH]c2nc(-c3ccc(O)c(F)c3)cc(C(=O)NC3CN4CCC3CC4)c12 (stereo in doubt) [Example 361, (R)-6-(3-Fluoro-4-hydroxy-phenyl)-3-methyl-1H-pyrazolo[3,4-b]pyridine-4-carboxylic acid (1-aza-bicyclo[2.2.2]oct-3-yl)-amide]",50,–
